From patent publication US8829021B2, “Treatment of pediatric tumors” (Sigma-Tau Industrie Farmaceutiche Riunite S.p.A., priority 2007, dated 2014)
“And” between values parts separate entries of the source, which are not always exact repeats. Equal values may be shown once.

Tests used:
[1] = tested on: TE-671 (rhabdomyosarcoma); test: In vivo antitumoral activity, TE-671 rhabdomyosarcoma xenograft; parameters: species or system nude athymic mice (human tumor xenograft); details: 30 mg/kg i.v., q4dx4
Procedure: (§1) Exponentially growing tumor cells were injected s.c. into nude athymic mice. The number of tumor cells was previously chosen by a growth curve. […] Animals were housed under a light-dark cycle, keeping temperature and humidity constant. Parameters of the animal rooms were assessed as follows: 22±2° C. temperature, 55±10% relative humidity, about 15-20 filtered air changes/hour and 12 hour circadian cycle of artificial light (7 a.m., 7 p.m.). At request, the environmental conditions were monitored and the data are retained in Animal Housing Archives. Drinking water was supplied ad libitum. Each mouse was offered daily a complete pellet diet (GLP 4RF21, Mucedola) throughout the study. The analytical certificates of animal food and water are retained at Sigma-Tau premises. All animals were weighed before starting the experiment and were subdivided into the different dosage groups.
(§2) Tumor growth was followed by biweekly measurements of tumor diameters with a Vernier caliper. Tumor volume (TV, mm^3) was calculated as: [length (mm)×width (mm)^2]/2, where the width and the length are the shortest and the longest diameters of each tumor, respectively.
(§3) The efficacy of the drug treatment was assessed as tumor volume inhibition (TVI %) in treated versus control mice, calculated as: 100−[(mean tumor volume of treated animals/mean tumor volume of control animals)×100].

[2] = tested on: PFSK (primitive neuroectodermal tumors/PNET); test: In vivo antitumoral activity, PFSK primitive neuroectodermal tumor (PNET) xenograft; parameters: species or system nude athymic mice (human tumor xenograft); details: 30 mg/kg i.v., q4dx4
Procedure: as §1, §2, §3

SK-N-AS (neuroblastoma) = test: In vivo antitumoral activity, SK-N-AS neuroblastoma xenograft; parameters: species or system nude athymic mice (human tumor xenograft); details: SK-N-AS xenograft s.c. in nude mice; 30 mg/kg i.v., q4dx4
Procedure: as §1, §2, §3

[3] = tested on: human pediatric tumor xenograft models; test: In vivo antitumoral activity on different pediatric tumor xenograft models (overall); parameters: species or system nude athymic mice (human tumor xenograft); details: all models, compared with CPT-11; 30 mg/kg i.v., q4dx4
Procedure: (§4) The antitumor effect was evaluated against different human pediatric tumor models: SK-ND-AS (neuroblastoma); PSFK (primitive neuroectodermal tumors/PNET); TE-671 (rhabdomyosarcoma). ST 1968 was evaluated in comparison to CPT-11 (irinotecan) by intravenously delivery of 30 mg/10 ml/kg for ST1968 and 50 mg/10 ml/kg for CPT-11 according to the schedule q4dx4.
(§5) Exponentially growing tumor cells were injected s.c. into nude athymic mice. The number of tumor cells was previously chosen by a growth curve. Mice were housed inside cages of makrolon (33.2×15×13 cm) with stainless steel cover-feed and sterilized and dust-free bedding cobs. Animals were housed under a light-dark cycle, keeping temperature and humidity constant. Parameters of the animal rooms were assessed as follows: 22±2° C. temperature, 55±10% relative humidity, about 15-20 filtered air changes/hour and 12 hour circadian cycle of artificial light (7 a.m., 7 p.m.). At request, the environmental conditions were monitored and the data are retained in Animal Housing Archives. Drinking water was supplied ad libitum. […]
Tumor growth was followed by biweekly measurements of tumor diameters with a Vernier caliper. Tumor volume (TV, mm^3) was calculated as: [length (mm)×width (mm)^2]/2, where the width and the length are the shortest and the longest diameters of each tumor, respectively. […]

[4] = Toxicity of the drug treatments in tumor-bearing mice; format: in vivo, nude athymic mice; details: treatment i.v., q4dx4
Procedure: as §4, §5
The toxicity of the drug treatments was determined as: body weight loss percent (% BWL max)=100−(mean BWday x/mean BWday 1×100), where BWx is the mean BW at the day of maximal loss during the treatment and BW1 is the mean BW on the 1st day of treatment.

CC[C@@]1(O)C(=O)OCc2c1cc1n(c2=O)Cc2c-1nc1ccccc1c2/C=N\OCCN [ST1968, 7-(2-amino)ethoxyiminomethylcamptothecin]
TVI % (tumor volume inhibition) ([1]; TE-671 xenograft s.c. in nude mice, 30 mg/kg): 100% and 99% | complete responses (in words) ([1]; rhabdomyosarcoma model): high rate of complete responses | TVI % (tumor volume inhibition) ([2]; PFSK xenograft s.c. in nude mice, 30 mg/kg): 99% and 100% | complete responses (in words) ([2]; PNET model): high rate of complete responses | TVI % (tumor volume inhibition) (SK-N-AS (neuroblastoma)): 98% | antitumor activity / complete tumor regressions (in words) [3]: appreciable rate of complete tumor regressions in all models | tolerability / signs of acute or delayed toxicity (in words) [4]: generally well tolerated by mice with no signs of acute or delayed toxicity
